Data: the supplement of paper PMC10307832

What was measured:
Test in all cases: relative viability (nuclei count vs DMSO), 5 days (fraction); higher = more cells survive
Elesclomol + Trametinib = compound: CN(NC(=O)CC(=O)NN(C)C(=S)c1ccccc1)C(=S)c1ccccc1 [Elesclomol] + CC(=O)Nc1cccc(-n2c(=O)n(C3CC3)c(=O)c3c(Nc4ccc(I)cc4F)n(C)c(=O)c(C)c32)c1 [Trametinib] (partner 0.02 µM)
Outline: (§1)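 Lung cancer cell lines were pin-tool dosed in 1536-well plates on the day after seeding, with either a lone drug or a fixed anchor-drug dose plus five library-drug doses (not always all listed) in √10 steps. Nuclei were counted on 4× images after 5 days. Relative viability is the ratio of treated-well to vehicle-well nuclei counts, with each value a median of duplicate plates.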

Elesclomol + Palbociclib = compound: CN(NC(=O)CC(=O)NN(C)C(=S)c1ccccc1)C(=S)c1ccccc1 [Elesclomol] + CC(=O)c1c(C)c2cnc(Nc3ccc(N4CCNCC4)cn3)nc2n(C2CCCC2)c1=O [Palbociclib] (partner 0.5 µM)
Outline: as §1

Elesclomol + Tozasertib = compound: CN(NC(=O)CC(=O)NN(C)C(=S)c1ccccc1)C(=S)c1ccccc1 [Elesclomol] + Cc1cc(Nc2cc(N3CCN(C)CC3)nc(Sc3ccc(NC(=O)C4CC4)cc3)n2)n[nH]1 [Tozasertib] (partner 0.1 µM)
Outline: as §1

Elesclomol + Dasatinib = compound: CN(NC(=O)CC(=O)NN(C)C(=S)c1ccccc1)C(=S)c1ccccc1 [Elesclomol] + Cc1nc(Nc2ncc(C(=O)Nc3c(C)cccc3Cl)s2)cc(N2CCN(CCO)CC2)n1 [Dasatinib] (partner 0.075 µM)
Outline: as §1

Elesclomol + AZD7762 = compound: CN(NC(=O)CC(=O)NN(C)C(=S)c1ccccc1)C(=S)c1ccccc1 [Elesclomol] + NC(=O)Nc1cc(-c2cccc(F)c2)sc1C(=O)N[C@H]1CCCNC1 [AZD7762] (partner 0.2 µM)
Outline: as §1

Row | Cell Line | relative viability (Elesclomol + Trametinib; first compound 0.003162 µM) | relative viability (Elesclomol + Trametinib; first compound 0.01 µM) | relative viability (Elesclomol + Trametinib; first compound 0.03162 µM) | relative viability (Elesclomol + Trametinib; first compound 0.1 µM) | relative viability (Elesclomol + Palbociclib; first compound 0.003162 µM) | relative viability (Elesclomol + Palbociclib; first compound 0.01 µM) | relative viability (Elesclomol + Palbociclib; first compound 0.03162 µM) | relative viability (Elesclomol + Palbociclib; first compound 0.1 µM) | relative viability (Elesclomol + Tozasertib; first compound 0.003162 µM) | relative viability (Elesclomol + Tozasertib; first compound 0.01 µM) | relative viability (Elesclomol + Tozasertib; first compound 0.03162 µM) | relative viability (Elesclomol + Tozasertib; first compound 0.1 µM) | relative viability (Elesclomol + Dasatinib; first compound 0.003162 µM) | relative viability (Elesclomol + Dasatinib; first compound 0.01 µM) | relative viability (Elesclomol + Dasatinib; first compound 0.03162 µM) | relative viability (Elesclomol + Dasatinib; first compound 0.1 µM) | relative viability (Elesclomol + AZD7762; first compound 0.003162 µM) | relative viability (Elesclomol + AZD7762; first compound 0.01 µM) | relative viability (Elesclomol + AZD7762; first compound 0.03162 µM) | relative viability (Elesclomol + AZD7762; first compound 0.1 µM)
1 | NCI-H2347 | 0.341 | 0.264 | 0.33 | 0.256 | 0.401 | 0.441 | 0.328 | 0.321 | 0.683 | 0.424 | 0.264 | 0.248 | 0.29 | 0.373 | 0.287 | 0.185 | 0.703 | 0.661 | 0.629 | 0.447
2 | LXF-289 | 0.676 | 0.65 | 0.663 | 0.423 | 0.627 | 0.561 | 0.548 | 0.36 | 0.193 | 0.17 | 0.188 | 0.174 | 0.243 | 0.176 | 0.202 | 0.113 | 1.01 | 1.04 | 0.974 | 0.509
3 | BEN | 0.915 | 0.65 | 0.749 | 0.395 | 0.46 | 0.388 | 0.39 | 0.304 | 0.592 | 0.399 | 0.45 | 0.402 | 0.359 | 0.204 | 0.219 | 0.159 | 0.654 | 0.54 | 0.38 | 0.294
4 | NCI-H1355 | 0.434 | 0.408 | 0.356 | 0.159 | 0.429 | 0.344 | 0.3 | 0.171 | 0.505 | 0.538 | 0.332 | 0.173 | 0.736 | 0.639 | 0.396 | 0.178 | 0.793 | 0.7 | 0.478 | 0.179
5 | NCI-H1793 | 0.339 | 0.414 | 0.318 | 0.111 | 0.3 | 0.297 | 0.247 | 0.123 | 0.356 | 0.286 | 0.348 | 0.132 | 0.358 | 0.268 | 0.373 | 0.136 | 0.442 | 0.448 | 0.464 | 0.104
6 | NCI-H838 | 0.56 | 0.494 | 0.518 | 0.216 | 0.229 | 0.189 | 0.247 | 0.143 | 0.282 | 0.25 | 0.18 | 0.172 | 0.287 | 0.296 | 0.224 | 0.177 | 0.989 | 0.87 | 0.735 | 0.613
7 | EMC-BAC-2 | 0.813 | 0.808 | – | 0.4 | 0.514 | 0.369 | 0.455 | 0.352 | 0.307 | 0.265 | 0.275 | 0.213 | 0.361 | 0.28 | 0.286 | 0.138 | 1.2 | 0.775 | 0.831 | 0.684
8 | LU99A | 0.618 | 0.371 | 0.58 | 0.339 | 0.394 | 0.269 | 0.408 | 0.179 | 0.305 | 0.245 | 0.274 | 0.165 | 0.569 | 0.39 | 0.512 | 0.185 | 0.357 | 0.329 | 0.418 | 0.185
9 | PC-3 [JPC-3] | 0.714 | 0.473 | 0.435 | 0.5 | 0.609 | 0.495 | 0.456 | 0.411 | 0.913 | 0.783 | 0.941 | 0.569 | 0.913 | 0.914 | 1.05 | 0.647 | 0.741 | 0.539 | 0.438 | 0.401
10 | LCLC-97TM1 | 0.198 | 0.192 | 0.195 | 0.0969 | 0.189 | 0.193 | 0.277 | 0.129 | 0.196 | 0.148 | 0.178 | 0.153 | 0.854 | 0.765 | 0.798 | 0.264 | 0.234 | 0.158 | 0.16 | 0.0576
11 | NCI-H1993 | 0.544 | 0.576 | 0.495 | 0.339 | 0.712 | 0.564 | 0.456 | 0.433 | 0.568 | 0.491 | 0.452 | 0.401 | 0.577 | 0.508 | 0.494 | 0.453 | 0.712 | 0.618 | 0.475 | 0.315
12 | HARA | 0.704 | 0.465 | 0.189 | 0.159 | 0.239 | 0.278 | 0.284 | 0.233 | 0.155 | 0.108 | 0.0878 | 0.0669 | 0.244 | 0.312 | 0.283 | 0.0991 | 0.348 | 0.288 | 0.302 | 0.227
13 | NCI-H460 | 0.117 | 0.203 | 0.0139 | 0.0132 | 0.185 | 0.138 | 0.0179 | 0.0102 | 0.497 | 0.365 | 0.116 | 0.0193 | 0.516 | 0.422 | 0.0534 | 0.0171 | 0.547 | 0.513 | 0.232 | 0.048
14 | EKVX | 0.313 | 0.188 | 0.144 | 0.105 | 0.334 | 0.155 | 0.143 | 0.105 | 0.343 | 0.281 | 0.199 | 0.141 | 0.474 | 0.315 | 0.226 | 0.202 | 0.569 | 0.318 | 0.206 | 0.0929
15 | NCI-H1755 | 0.772 | 0.77 | 0.774 | 0.56 | 0.483 | 0.429 | 0.462 | 0.393 | 0.625 | 0.47 | 0.421 | 0.288 | 0.446 | 0.357 | 0.433 | 0.214 | 0.457 | 0.349 | 0.38 | 0.406
16 | NCI-H1395 | 1.01 | 0.626 | 0.294 | 0.215 | 0.659 | 0.36 | 0.309 | 0.219 | 0.832 | 0.461 | 0.243 | 0.276 | 0.387 | 0.304 | 0.266 | 0.22 | 0.438 | 0.431 | 0.226 | 0.202
